Entries after “also recorded” stand apart in the source; their conditions may differ.

From patent publication US9675576B2, “Polyenolic zinc-binding agents (pezbins) actively promote inactivation of cancer stem cells and potentiate cytotoxic anti-tumor drug substances” (The Research Foundation for The State University of New York, priority 2012, dated 2017) come the findings set out here.

The test system of data set [1] is prostate CD133+ cells (PPT2 and PC3MM2). The data set is described as follows: MTT cytotoxicity assay, results stated for prostate CD133+ cells without split by line. The format is cell-based, human. The settings on record: 48-72 hours, 10 nM to 10 μM, stated as up to. How it is done:
(§1) The CSC-specific cytotoxic effects were studied in two different settings both of which are known to maintain/promote sternness phenotype: adherent to type I collagen cultures and 3D cultures of floating spheroids (Baretton, G. B. 1994; Miyoshi, Y. 2000; Koivisto, P. 1995). The CD133^high/CD44^high cells (1×10^3 cells/well) isolated either from PPT2 or PC3MM2 cell lines were seeded onto the type I collagen-coated 96-well plates, cultured in the MSCGM for 2 days, and the treatment was initiated upon 90% confluency. Paclitaxel, SBT-1214 and CMC2.24 were dissolved in sterile DMSO and then serially diluted in MSCGM. For testing the SBT-1214/CMC2.24 combination efficacy, the regular MSCGM was replaced with treatment medium containing SBT-1214 or Ptx at selected concentration range (from 10 nM to 10 μM) with 30 μM CMC2.24. Treatment medium was removed 24, 48 or 72 hr later, followed by return to the MSCGM. Cell death was analyzed on adherent type I collagen cell cultures with the MTT assay [MTT=3-(4,5-dimethylthiazol-2-yl)-2,5-diphenyltetrazolium bromide] as recommended by manufacturer (Invitrogen). Spheroids were cultured and treated on ULA plates.
(§2) The dose-response cytotoxicity of SBT-1214, CMC2.24/and their combination was evaluated by standard MTT assay (all of the in vitro experiments were repeated at least three times and each measurement for the MMT assay was performed in 4 repeats). The dose-response points were plotted as a percentage of the untreated control, the absorbance of which was considered as 100%. Data were expressed as means±SD for each drug concentration. The in vivo responses to drug treatment were evaluated as changes in tumor volume of drug-treated versus untreated control xenografts induced by particular type of cells. Data were expressed as means±SD for control and drug treated tumors. The statistical significance of differences was determined using Student's t-test. The parameters used were the two-tailed distribution and the paired test. P<0.05 was considered statistically significant.
Background: Tetrazolium assays rely on reduction of a dye to a coloured formazan, in cell work by metabolically active cells.

For a further data set, the system named is PC3MM2-induced tumors. Nature of the data set: Residual tumors after treatment, viable cells and ex vivo colonies, PC3MM2. The settings on record: 40, 20, 20, 20 mg/kg weekly, one week after last treatment. The format is in vivo, NOD/SCID mice. The procedure:
(§3) Animals were handled according to protocols that have been approved by the Institutional Animal Care and Use committee of the Stony Brook University. The staff of veterinarians provided veterinary care. The SBT-1214 was administered intravenously (40, 20, 20, 20 mg/kg; weekly) to 6-weeks old NOD/SCID mice. Treatment was started 2-3 weeks after transplantation of the tumor cells, when tumor xenografts reached ˜100 mm^3. Systemic toxicity in NOD/SCID mice was closely monitored and evaluated by standard criteria (motor activity, morbidity, appetite, posture and appearance). One week after the last treatment, all residual tumors were harvested and analyzed histopathologically and for ex vivo clonogenic capacity. One part of each mouse tumor xenograft was snap-frozen in embedding matrix (Lipshaw) and kept at −80° C. before immunohistochemical analysis at standard conditions. […] Ability to induce the round colonies (holoclones) was also determined before and after drug treatment. Cells were counted and plated on 48-well plates at a final count of 300 cells per well. One week after initiation, the plates were inspected for colony growth and the number of colonies within each well was quantified by phase contrast microscopy. After drug treatment, one portion of cells which survived particular treatment regimen was placed at 3D and adherent culture conditions and analyzed. […]

The next data set deals with c-Myc, Sox-2 and Oct4. Nature of the data set: Western blot of key transcription factors. Format: cell-based, human. The settings on record: nuclear extracts of CD133+ and bulk PPT2 cells. The procedure: Cells were lysed using Active Motif Nuclear Co-ip kit according to manufacturer's protocol. 20 μg of enriched nuclear and cytoplasmic extracts was subjected to electrophoresis in 10% polyacrylamide gel. The proteins were then transferred to a nitrocellulose membrane and developed with appropriate antibodies.

The nature of data set [2]: Systemic toxicity in tumor-bearing mice. The format is in vivo, NOD/SCID mice. The procedure:
as §3

For data set [3], the system named is PPT2- and PC3MM2-induced tumors. Nature of the data set: Tumor xenografts induced by CD133+ cells, tumor size. The format is in vivo, NOD/SCID mice. The procedure:
All experiments involving the use of animals were carried out in strict accordance with the recommendations in the Guide for the Care and Use of Laboratory Animals of the National Institutes of Health, via a research protocol that was approved by Stony Brook University Institutional Animal Care and Use Committee (IACUC). NOD/SCID mice (Charles River Laboratories International, Inc., MA) were maintained under defined conditions at SBU animal facility. After sufficient propagation, CD133^+ cells were resuspended in 1:1 MSCGM/Matrigel and injected to the flanks of 6 weeks old NOD/SCID mice (3,000 cells per mice; subcutaneously). Tumor development was monitored starting from the second week. The primary tumor sizes were measured with a caliper on a weekly basis and approximate tumor weights determined using the formula 0.5ab^2, where b is the smaller of the two perpendicular diameters. All mice were terminated after fourth week of treatment, if the tumor measured ˜2 cm, or at the first sign of suffering.
Animals were handled according to protocols that have been approved by the Institutional Animal Care and Use committee of the Stony Brook University. […] Systemic toxicity in NOD/SCID mice was closely monitored and evaluated by standard criteria (motor activity, morbidity, appetite, posture and appearance). […] Cells were counted and plated on 48-well plates at a final count of 300 cells per well. […]

The test system of the next data set is CD133+ PPT2 cells. Format: cell-based, human. The procedure:
as §1, §2

In the next data set the test system is PPT2-induced tumors. Nature of the data set: Residual tumors after treatment, viable cells and ex vivo colonies, PPT2. The format is in vivo, NOD/SCID mice. The settings on record: 40, 20, 20, 20 mg/kg weekly, one week after last treatment. How it is done: as §3
The test system of data set [4] is PPT2 and PC3MM2 floating spheroids. Nature of the data set: Sphere formation assay after drug treatment. Format: cell-based, human. The settings on record: 1 μM, 24 hours. The procedure:
In order to obtain prostate cancer spheroids, MACS-CD133 and MACS-CD44 (Miltenyi Biotec, CA) or FACS sorted CD133^high/CD44^high cells were seeded at low numbers on ULA plates (1,000 cells per 6-well plate or 5-10,000 cells per 75 mm flasks) in MSCGM or SPCM. For evaluation of the clonogenic/sphere-forming capacity, cells were counted with Cellometer Auto T4 (Nexcelom Bioscience LLC, MA), resuspended in 1:4 type I collagen/SPCM or 1:4 Matrigel/MSGM and known cell numbers were plated on ULA plates. One week after initiation plates were inspected for floating sphere growth and compact well-shaped spheroids were counted. Spheroids were serially passaged by gentle dissociation and mixing with a new Matrigel/MSGM or type I collagen/SPCM, or reseeded on 48-well plates for final count of 5-10 spheres per well for further propagation and analysis.

Consider `CC(=O)O[C@@]12CO[C@@H]1C[C@H](O)[C@@]1(C)C(=O)[C@H](OC(=O)C3CC3)C3=C(C)[C@@H](OC(=O)[C@H](O)[C@H](C=C(C)C)NC(=O)OC(C)(C)C)C[C@@](O)([C@@H](OC(=O)c4ccccc4)[C@H]21)C3(C)C` [SBT-1214], for which, in data set [1], the “CD133+ cells killed” value is “up to 60%”. In addition, the “residual tumors without viable cells and without colonies in culture” value is given as “three of six” with PC3MM2-induced tumors and “Four of six” with PPT2-induced tumors. The “c-Myc and Sox2 expression” value in the data set on c-Myc, Sox-2 and Oct4 is listed as “moderate down-regulation”. Also, the systemic toxicity entry in data set [2] (40, 20, 20, 20 mg/kg weekly) was “much lower systemic toxicity”; in data set [2] (40, 40, 40 mg/kg weekly), “all mice expressed common signs of systemic toxicity”. Besides, the tumor size entry in data set [3] (40, 20, 20, 20 mg/kg weekly i.v.) is “more significant tumor regression; also recorded: dramatic reduction in tumor size”; in data set [3] (40, 40, 40 mg/kg weekly i.v., by the third treatment), “dramatically shrunk”. Moreover, the “cytotoxicity at lower concentrations compared to 10 μM” value in the data set with CD133+ PPT2 cells (100 nM-1 μM versus 10 μM, 48-72 hours) is “higher cytotoxicity”. Further, in the data set with CD133+ PPT2 cells (72 hours, 10 nM-10 μM, stated as up to), the cell death result was “up to 65%”. Besides, the “ability to induce secondary 3D spheroids or collagen-adherent colonies” value in data set [4] is reported as “lost their ability to induce both secondary 3D spheroids”.
